Test results reported in US10023562B2, “Heteroaryl substituted pyridyl compounds useful as kinase modulators” (BRISTOL-MYERS SQUIBB COMPANY, priority 2012, dated 2018).

System: TLR2 induced IL-6 in peripheral blood mononuclear cells (PBMCs)
Assay: PBMC TLR2 Induced IL-6 Assay
Assay type: cell-based
Details: Homo sapiens, PBMC, 5 h, 10 μg/ml lipoteichoic acid for 5 hours, IL-6 by ELISA; for IC50: values without asterisk, read-out: Cell IC50; for EC50: values marked * are EC50, read-out: Cell EC50 (values marked *)
Protocol: PBMC TLR2 Induced IL-6 Assay Peripheral blood mononuclear cells (PBMCs) were isolated from human blood containing the anti-coagulant EDTA (2.5 mM) by centrifugation over a FICOLL® gradient. […] At the end of the culture, plates were centrifuged at 1800 rpm for 10 minutes to pellet the cells. Supernatants were harvested and analyzed for IL-6 levels by ELISA (BD Biosciences, San Jose, Calif.).

| Structure (SMILES) | IC50 | EC50 |
| --- | --- | --- |
| CC(=O)N[C@H]1CC[C@H](NC(=O)c2cnc(Nc3ccc(C#N)cn3)cc2NC(C)C)CC1 [Example 9, N-(trans-4-acetamidocyclohexyl)-6-((5-cyano-2-pyridinyl)amino)-4-(isopropylamino)nicotinamide] | 116 nM |  |
| COc1cnc(Nc2cc(NC3CCC3)c(C(=O)NC[C@@H](F)C(C)(C)O)cn2)nc1 [Example 112] |  | 87 nM |
| CC(C)(O)[C@H](F)CNC(=O)c1cnc(Nc2ncc(C#N)cc2Cl)cc1NC1CC1 [Example 14, 6-((3-chloro-5-cyano-2-pyridinyl)amino)-4-(cyclopropylamino)-N-((2R)-2-fluoro-3-hydroxy-3-methylbutyl)nicotinamide] | 43 nM |  |
| CC(C)(O)[C@H](F)CNC(=O)c1cnc(Nc2ncc(C#N)cc2Cl)cc1NC1CCOCC1 [Example 13, 6-((3-chloro-5-cyano-2-pyridinyl)amino)-N-((2R)-2-fluoro-3-hydroxy-3-methylbutyl)-4-(tetrahydro-2H-pyran-4-ylamino)nicotinamide] | 420 nM |  |
| CC(C)(O)[C@H](F)CNC(=O)c1cnc(Nc2ncc(C#N)cc2Cl)cc1NC1CCCC1O (stereo partly shown) [Example 76] |  | 107 nM |
| CC(C)(F)CNc1cc(Nc2ncc(C#N)cc2Cl)ncc1C(=O)NC1CCC(C(C)(C)O)CC1 (stereo not shown) [Example 103] |  | 195 nM |
| Cn1nnnc1-c1cccc(Nc2cc(Nc3ncc(C#N)cc3Cl)ncc2C(=O)NC[C@@H](F)C(C)(C)O)c1 [Example 146] |  | 509 nM |
| CC(C)Nc1cc(Nc2ncc(C#N)cc2F)ncc1C(=O)NC1CCC(O)(c2nccs2)CC1 (stereo not shown) [Example 167] |  | 638 nM |
| [2H]C([2H])([2H])OC(C)(C)[C@H](F)CNC(=O)c1cnc(Nc2ncc(C#N)cc2F)cc1NC(C)C [Example 37] |  | 95 nM |
| CC(=O)N[C@H]1CC[C@H](NC(=O)c2cnc(Nc3ncc(C#N)cc3F)cc2NC(C)C)CC1 [Example 19, N-(trans-4-acetamidocyclohexyl)-6-((5-cyano-3-fluoro-2-pyridinyl)amino)-4-(isopropylamino)nicotinamide] | 378 nM |  |
| CNC(=O)[C@H]1CC[C@H](NC(=O)c2cnc(Nc3ncc(C#N)cc3F)cc2NC2CCOCC2)CC1 [Example 61] | 184 nM |  |
| CC(C)(O)C(F)(F)CNC(=O)c1cnc(Nc2ncc(C#N)cc2Cl)cc1NC1CC1 [Example 43, 6-((3-chloro-5-cyanopyridin-2-yl)amino)-4-(cyclopropylamino)-N-(2,2-difluoro-3-hydroxy-3-methylbutyl)nicotinamide] |  | 169 nM |
| CC(C)Nc1cc(Nc2ccnc(NC3CC3)n2)ncc1C(=O)NC[C@@H](F)C(C)(C)O [Example 24, 6-((2-(cyclopropylamino)-4-pyrimidinyl)amino)-N-((2R)-2-fluoro-3-hydroxy-3-methylbutyl)-4-(isopropylamino)nicotinamide] | 312 nM |  |
| CC(=O)N[C@H]1CC[C@H](NC(=O)c2cnc(Nc3ncc(C#N)cc3Cl)cc2NC2CC2)CC1 [Example 67] |  | 457 nM |
| C[C@@H](CO)Nc1cc(Nc2ncc(C#N)cc2F)ncc1C(=O)NC[C@@H](F)C(C)(C)O [Example 91] |  | 178 nM |
| CCNc1cc(Nc2ncc(C#N)cc2Cl)ncc1C(=O)NC[C@@H](F)C(C)(C)O [Example 51] | 99 nM |  |
| CC(C)(O)[C@H](F)CNC(=O)c1cnc(Nc2ncc(C(N)=O)cc2Cl)cc1NC1CCC(F)C1 (stereo partly shown) [Example 38] |  | 453 nM |
| CC(C)Nc1cc(Nc2ncc(C#N)cc2F)ncc1C(=O)N[C@H]1CC[C@H](S(C)(=O)=O)CC1 [Example 33, 6-((5-cyano-3-fluoropyridin-2-yl)amino)-4-(isopropylamino)-N-((1R,4R)-4-(methylsulfonyl)cyclohexyl)nicotinamide] |  | 149 nM |
| CC(C)Nc1cc(Nc2ccc(C#N)cn2)ncc1C(=O)N[C@H]1CC[C@H](C(=O)N[C@H]2C[C@H]2F)CC1 [Example 7, 6-((5-cyano-2-pyridinyl)amino)-N-(trans-4-(((1S,2R)-2-fluorocyclopropyl)carbamoyl)cyclohexyl)-4-(isopropylamino)nicotinamide] | 800 nM |  |
| CC(C)(O)[C@H](F)CNC(=O)c1cnc(Nc2ncncc2Cl)cc1NC1CC1 [Example 105] |  | 336 nM |
| CCNc1cc(Nc2ncc(C#N)cc2F)ncc1C(=O)NC[C@@H](F)C(C)(C)O [Example 66] |  | 63 nM |
| CC(C)(O)[C@H](F)CNC(=O)c1cnc(Nc2ncc(C#N)cc2Cl)cc1Nc1ccc2ncsc2c1 [Example 153] |  | 439 nM |
| CNC(=O)c1cnc(Nc2ccc(C#N)cn2)cc1N[C@@H](c1ccccc1)[C@H](O)CO [Example 1, 6-((5-cyano-2-pyridinyl)amino)-4-(((1S,2S)-2,3-dihydroxy-1-phenylpropyl)amino)-N-methylnicotinamide] | 550 nM |  |
| CC(C)(O)[C@H](F)CNC(=O)c1cnc(Nc2ccncn2)cc1NC1CC1 [Example 21, 4-(cyclopropylamino)-N-((2R)-2-fluoro-3-hydroxy-3-methylbutyl)-6-(4-pyrimidinylamino)nicotinamide] | 331 nM |  |
| CC(C)Nc1cc(Nc2ccc(C#N)cn2)ncc1C(=O)NC1CCC(O)(c2ccnn2C)CC1 (stereo not shown) [Example 31, 6-((5-cyanopyridin-2-yl)amino)-N-((1s,4s)-4-hydroxy-4-(1-methyl-1H-pyrazol-5-yl)cyclohexyl)-4-(isopropylamino)nicotinamide] |  | 170 nM |

| Structure (SMILES) | IC50 | EC50 |
| --- | --- | --- |
| COC[C@H](F)CNC(=O)c1cnc(Nc2ncc(C#N)cc2F)cc1NC(C)C [Example 35, (R)-6-((5-cyano-3-fluoropyridin-2-yl)amino)-N-(2-fluoro-3-methoxypropyl)-4-(isopropylamino)nicotinamide] |  | 350 nM |
| CC(C)Nc1cc(Nc2ncc(C#N)cc2Cl)ncc1C(=O)NC[C@@H](F)C(C)(C)O [Example 12, 6-((3-chloro-5-cyano-2-pyridinyl)amino)-N-((2R)-2-fluoro-3-hydroxy-3-methylbutyl)-4-(isopropylamino)nicotinamide] | 50 nM |  |
| CC(C)(O)[C@H](F)CNC(=O)c1cnc(Nc2ncc(C#N)cc2Cl)cc1NC1CCOCC1F (stereo partly shown) [Example 79] |  | 494 nM |
| CC(=O)N1CCC(NC(=O)c2cnc(Nc3ccc(C#N)cn3)cc2NC(C)C)CC1 [Example 8, N-(1-acetyl-4-piperidinyl)-6-((5-cyano-2-pyridinyl)amino)-4-(isopropylamino)nicotinamide] | 433 nM |  |
| CCCNc1cc(Nc2ncc(C#N)cc2F)ncc1C(=O)NC[C@@H](F)C(C)(C)O [Example 139] |  | 114 nM |
| CC(C)(O)[C@H](F)CNC(=O)c1cnc(Nc2ncc(C#N)cc2Cl)cc1NC1CCCCC1O (stereo partly shown) [Example 104] |  | 199 nM |
| CCNC(=O)[C@H]1CC[C@H](NC(=O)c2cnc(Nc3ncc(C#N)cc3F)cc2NC(C)C)CC1 [Example 30, 6-((5-cyano-3-fluoropyridin-2-yl)amino)-N-((1R,4R)-4-(ethylcarbamoyl)cyclohexyl)-4-(isopropylamino)nicotinamide] |  | 163 nM |
| CC(=O)N[C@H]1CC[C@H](NC(=O)c2cnc(Nc3ncc(C#N)cc3Cl)cc2NC2CCOCC2)CC1 [Example 77] |  | 216 nM |
| CC(C)Nc1cc(Nc2ncc(C#N)cc2F)ncc1C(=O)NC[C@@H](F)C(C)(C)O [Example 17, 6-((5-cyano-3-fluoro-2-pyridinyl)amino)-N-((2R)-2-fluoro-3-hydroxy-3-methylbutyl)-4-(isopropylamino)nicotinamide] | 382 nM |  |
| COC(C)(C)[C@H](F)CNC(=O)c1cnc(Nc2ncc(C#N)cc2F)cc1NC(C)C [Example 36] |  | 49 nM |
| CC(C)(O)[C@H](F)CNC(=O)c1cnc(Nc2nc(OC3CCNCC3)ncc2Cl)cc1NC1CC1 [Example 42] |  | 329 nM |
| CC(C)Nc1cc(Nc2ncncc2Cl)ncc1C(=O)NC[C@@H](F)C(C)(C)O [Example 52] | 74 nM |  |
| Cn1nnnc1-c1ccc(Nc2cc(Nc3ncc(C#N)cn3)ncc2C(=O)NC[C@@H](F)C(C)(C)O)cc1 [Example 147] |  | 439 nM |
| CS(=O)(=O)[C@H]1CC[C@H](NC(=O)c2cnc(Nc3ncc(C#N)cc3Cl)cc2NC2CC2)CC1 [Example 151] |  | 187 nM |
| CC(C)(O)[C@H](F)CNC(=O)c1cnc(Nc2ncc(C#N)cc2Cl)cc1NCC(F)(F)F [Example 65] |  | 156 nM |
| COC(=O)Cn1cc(Cl)c(Nc2cc(NC(C)C)c(C(=O)NC[C@@H](F)C(C)(C)O)cn2)n1 [Example 93] |  | 394 nM |
| CC(C)Nc1cc(Nc2ncc(C#N)cn2)ncc1C(=O)NC[C@@H](F)C(C)(C)O [Example 22, 6-((5-cyano-2-pyrimidinyl)amino)-N-((2R)-2-fluoro-3-hydroxy-3-methylbutyl)-4-(isopropylamino)nicotinamide] | 342 nM |  |
| CC(C)CNc1cc(Nc2ncc(C#N)cc2Cl)ncc1C(=O)NC[C@@H](F)C(C)(C)O [Example 155] |  | 309 nM |
| CC(C)Nc1cc(Nc2ccnc(N3CCC(F)C3)n2)ncc1C(=O)NC[C@@H](F)C(C)(C)O (stereo partly drawn) [Example 26, N-((2R)-2-fluoro-3-hydroxy-3-methylbutyl)-6-((2-(3-fluoro-1-pyrrolidinyl)-4-pyrimidinyl)amino)-4-(isopropylamino)nicotinamide] | 139 nM |  |
| CC(C)Nc1cc(Nc2ncc(C#N)cc2F)ncc1C(=O)N[C@H]1CC[C@H](C(C)(C)O)CC1 [Example 137] |  | 72 nM |
| CNC(=O)[C@H]1CC[C@H](NC(=O)c2cnc(Nc3ncc(C#N)cc3F)cc2NC2CC2)CC1 [Example 59] | 60 nM |  |
| CC(C)(O)[C@H](F)CNC(=O)c1cnc(Nc2ncc(Cl)cc2F)cc1NC1CC1 [Example 124] |  | 98 nM |
| CC(C)(O)[C@H](F)CNC(=O)c1cnc(Nc2nc(-c3cccnc3)cs2)cc1NC1CC1 [Example 23, 4-(cyclopropylamino)-N-((2R)-2-fluoro-3-hydroxy-3-methylbutyl)-6-((4-(3-pyridinyl)-1,3-thiazol-2-yl)amino)nicotinamide] | 32 nM |  |
| CC(C)(O)[C@H](F)CNC(=O)c1cnc(Nc2ncc(C#N)cc2F)cc1NC12CCC(O)(CC1)C2 [Example 133] |  | 85 nM |
